≈ marks a conversion by molar mass, not a printed value.
What was measured:
Assay type in all cases: functional
Streptococcus pneumoniae [1] = test: Minimum inhibitory concentration of compound against Ery-R Streptococcus pneumoniae 163 was determined
Streptococcus pneumoniae [2] = test: Minimum inhibitory concentration of compound against Ery-R Streptococcus pneumoniae 5032 was determined
Streptococcus pneumoniae [3] = test: Minimum inhibitory concentration of compound against Ery-S Streptococcus pneumoniae 3773 was determined
Streptococcus pyogenes [4] = test: Minimum inhibitory concentration of compound against Ery-R Streptococcus pyogenes ATCC 19615 was determined
Haemophilus influenzae [5] = test: Minimum inhibitory concentration of compound against Ery-S Haemophilus influenzae ATCC 49247 was determined
Streptococcus pneumoniae [6] = test: Minimum inhibitory concentration of compound against Ery-S Streptococcus pneumoniae ATCC 49619 was determined
Streptococcus pyogenes [7] = test: Minimum inhibitory concentration of compound against Ery-R Streptococcus pyogenes 1721 was determined
Streptococcus pyogenes [8] = test: Minimum inhibitory concentration of compound against Ery-R Streptococcus pyogenes 1850 was determined
Streptococcus pyogenes [9] = test: Minimum inhibitory concentration of compound against Ery-R Streptococcus pyogenes 3029 was determined
Streptococcus pyogenes [10] = test: Minimum inhibitory concentration of compound against Ery-R Streptococcus pyogenes 3262 was determined
Streptococcus pneumoniae [11] = test: Minimum inhibitory concentration of compound against Ery-R Streptococcus pneumoniae 303 was determined
Staphylococcus aureus [12] = test: Minimum inhibitory concentration of compound against Ery-R Staphylococcus aureus 96:11480 was determined
Staphylococcus aureus [13] = test: Minimum inhibitory concentration of compound against Ery-S Staphylococcus aureus ATCC 29213 was determined
Streptococcus pyogenes [14] = test: Minimum inhibitory concentration of compound against Ery-S Streptococcus pyogenes ATCC 19615 was determined
Staphylococcus aureus [15] = test: Minimum inhibitory concentration of compound against Staphylococcus aureus ATCC 23029 Ery-S was determined
Streptococcus pyogenes [16] = test: Minimum inhibitory concentration of compound against Streptococcus pyogenes ATCC 13029 Ery-R was determined
Streptococcus pyogenes [17] = test: Minimum inhibitory concentration of compound against Streptococcus pyogenes ATCC 19615 Ery-S was determined
Staphylococcus aureus [18] = test: Minimum inhibitory concentration of compound against Staphylococcus aureus ATCC 96:11480 Ery-R was determined
Haemophilus influenzae [19] = test: Minimum inhibitory concentration of compound against Haemophilus influenzae ATCC 49247 Ery-S was determined
Streptococcus pneumoniae [20] = test: Minimum inhibitory concentration of compound against Streptococcus pneumoniae ATCC 49163 Ery-R was determined
Streptococcus pneumoniae [21] = test: Minimum inhibitory concentration of compound against Streptococcus pneumoniae ATCC 49303 Ery-R was determined
Streptococcus pneumoniae [22] = test: Minimum inhibitory concentration of compound against Streptococcus pneumoniae ATCC 49619 Ery-S was determined
Streptococcus pneumoniae [23] = test: 1 Minimum inhibitory concentration of compound against Ery-R Streptococcus pneumoniae 163 was determined
Streptococcus pyogenes [24] = test: Minimum inhibitory concentration of compound against Ery-R Streptococcus pyogenes 13029 was determined
Staphylococcus aureus [25] = test: Minimum inhibitory concentration of compound against Ery-S Staphylococcus aureus ATCC 23029 was determined

Row | Compound | MIC (Streptococcus pneumoniae [1]) | MIC (Streptococcus pneumoniae [2]) | MIC (Streptococcus pneumoniae [3]) | MIC (Haemophilus influenzae [5]) | MIC (Streptococcus pneumoniae [6]) | MIC (Streptococcus pyogenes [7]) | MIC (Streptococcus pyogenes [8]) | MIC (Streptococcus pyogenes [9]) | MIC (Streptococcus pyogenes [10]) | MIC (Streptococcus pneumoniae [11]) | MIC (Staphylococcus aureus [12]) | MIC (Staphylococcus aureus [13]) | MIC (Streptococcus pyogenes [14]) | MIC (Streptococcus pneumoniae [22]) | also measured
1 | CC[C@H]1OC(=O)[C@@](C)(F)C(=O)[C@H](C)[C@@H](O[C@@H]2O[C@H](CO)[C@@H](O)[C@H](N(C)C)[C@H]2O)[C@@](C)(OC)C[C@@H](C)C(=O)[C@H](C)[C@H]2N(CCCCn3cc(-c4cccc(N)c4)nn3)C(=O)O[C@]12C | ≤ 0.125 µg/mL | > 32 µg/mL | > 32 µg/mL | > 32 µg/mL | ≤ 0.125 µg/mL | > 32 µg/mL | > 32 µg/mL | > 32 µg/mL | > 32 µg/mL | ≤ 0.125 µg/mL | – | – | – | – | MIC (Streptococcus pyogenes [4]): ≤ 0.125 µg/mL
2 | CC[C@H]1OC(=O)[C@@](C)(F)C(=O)[C@H](C)[C@@H](O[C@@H]2O[C@H](COCc3ccccc3)C[C@H](N(C)C)[C@H]2O)[C@@](C)(OC)C[C@@H](C)C(=O)[C@H](C)[C@H]2N(CCCCn3cc(-c4cccc(N)c4)nn3)C(=O)O[C@]12C | ≤ 0.125 µg/mL | 0.25 µg/mL (≈ 0.263 µM) | 4 µg/mL (≈ 4.21 µM) | 4 µg/mL (≈ 4.21 µM) | ≤ 0.125 µg/mL | 8 µg/mL (≈ 8.41 µM) | 0.25 µg/mL (≈ 0.263 µM) | ≤ 0.125 µg/mL | 0.5 µg/mL (≈ 0.526 µM) | ≤ 0.125 µg/mL | – | – | – | – | –
3 | CC[C@H]1OC(=O)[C@H](C)C(=O)[C@H](C)[C@@H](O[C@@H]2OC[C@@H](O)[C@H](N(C)C)[C@H]2O)[C@@](C)(OC)C[C@@H](C)C(=O)[C@H](C)[C@H]2N(CCCCn3cc(-c4ccccn4)nn3)C(=O)O[C@]12C | 2 µg/mL (≈ 2.45 µM) | – | – | > 64 µg/mL | 4 µg/mL (≈ 4.91 µM) | – | – | – | – | 16 µg/mL (≈ 19.6 µM) | 4 µg/mL (≈ 4.91 µM) | 4 µg/mL (≈ 4.91 µM) | ≤ 0.125 µg/mL | – | –
4 | CC[C@H]1OC(=O)[C@H](C)C(=O)[C@H](C)[C@@H](O[C@@H]2O[C@H](COCc3ccccc3)[C@@H](O)[C@H](N(C)C)[C@H]2O)[C@@](C)(OC)C[C@@H](C)C(=O)[C@H](C)[C@H]2N(CCCCn3cc(-c4ccccn4)nn3)C(=O)O[C@]12C | – | – | – | – | – | – | – | – | – | – | – | – | – | ≤ 0.125 µg/mL | MIC (Staphylococcus aureus [15]): ≤ 0.125 µg/mL; MIC (Streptococcus pyogenes [16]): 2 µg/mL (≈ 2.14 µM); MIC (Streptococcus pyogenes [17]): ≤ 0.125 µg/mL; MIC (Staphylococcus aureus [18]): ≤ 0.125 µg/mL; MIC (Haemophilus influenzae [19]): 64 µg/mL (≈ 68.4 µM); MIC (Streptococcus pneumoniae [20]): ≤ 0.125 µg/mL; MIC (Streptococcus pneumoniae [21]): ≤ 0.125 µg/mL
5 | CC[C@H]1OC(=O)[C@@](C)(F)C(=O)[C@H](C)[C@@H](O[C@@H]2O[C@H](COCc3ccccc3)[C@@H](O)[C@H](N(C)C)[C@H]2O)[C@@](C)(OC)C[C@@H](C)C(=O)[C@H](C)[C@H]2N(CCCCn3cc(-c4cccc(N)c4)nn3)C(=O)O[C@]12C | ≤ 0.125 µg/mL | 4 µg/mL (≈ 4.14 µM) | 8 µg/mL (≈ 8.27 µM) | 4 µg/mL (≈ 4.14 µM) | ≤ 0.125 µg/mL | 8 µg/mL (≈ 8.27 µM) | 0.25 µg/mL (≈ 0.258 µM) | 0.5 µg/mL (≈ 0.517 µM) | 4 µg/mL (≈ 4.14 µM) | ≤ 0.125 µg/mL | – | – | – | – | MIC (Streptococcus pyogenes [4]): ≤ 0.125 µg/mL
6 | CC[C@H]1OC(=O)[C@H](C)C(=O)[C@H](C)[C@@H](O[C@@H]2O[C@H](C)[C@@H](O)[C@H](N(C)C)[C@H]2O)[C@@](C)(OC)C[C@@H](C)C(=O)[C@H](C)[C@H]2N(CCCCn3cc(-c4ccccn4)nn3)C(=O)O[C@]12C | 0.5 µg/mL (≈ 0.603 µM) | – | – | 16 µg/mL (≈ 19.3 µM) | ≤ 0.125 µg/mL | – | – | > 64 µg/mL | – | 16 µg/mL (≈ 19.3 µM) | 0.25 µg/mL (≈ 0.302 µM) | ≤ 0.125 µg/mL | ≤ 0.125 µg/mL | – | –
7 | CC[C@H]1OC(=O)[C@H](C)C(=O)[C@H](C)[C@@H](O[C@@H]2O[C@H](COCc3ccccc3)C[C@H](N(C)C)[C@H]2O)[C@@](C)(OC)C[C@@H](C)C(=O)[C@H](C)[C@H]2N(CCCCn3cc(-c4ccccn4)nn3)C(=O)O[C@]12C | – | – | – | – | – | – | – | – | – | – | – | – | – | ≤ 0.125 µg/mL | MIC (Streptococcus pyogenes [16]): 0.5 µg/mL (≈ 0.544 µM); MIC (Haemophilus influenzae [19]): 64 µg/mL (≈ 69.6 µM); MIC (Streptococcus pneumoniae [20]): ≤ 0.125 µg/mL; MIC (Streptococcus pneumoniae [21]): ≤ 0.125 µg/mL
8 | CC[C@H]1OC(=O)[C@H](C)C(=O)[C@H](C)[C@@H](O[C@@H]2O[C@H](CO)[C@@H](O)[C@H](N(C)C)[C@H]2O)[C@@](C)(OC)C[C@@H](C)C(=O)[C@H](C)[C@H]2N(CCCCn3cc(-c4ccccn4)nn3)C(=O)O[C@]12C | – | – | – | 64 µg/mL (≈ 75.7 µM) | ≤ 0.125 µg/mL | – | – | > 64 µg/mL | – | ≤ 0.125 µg/mL | 64 µg/mL (≈ 75.7 µM) | 4 µg/mL (≈ 4.73 µM) | ≤ 0.125 µg/mL | – | MIC (Streptococcus pneumoniae [23]): 4 µg/mL (≈ 4.73 µM)
9 | CC[C@H]1OC(=O)[C@H](C)C(=O)[C@H](C)[C@@H](O[C@@H]2O[C@H](C)C[C@H](N(C)C)[C@H]2O)[C@@](C)(OC)C[C@@H](C)C(=O)[C@H](C)[C@H]2N(CCCCn3cc(-c4ccccn4)nn3)C(=O)O[C@]12C | ≤ 0.125 µg/mL | – | – | 4 µg/mL (≈ 4.92 µM) | ≤ 0.125 µg/mL | – | – | > 64 µg/mL | – | ≤ 0.125 µg/mL | 0.125 µg/mL (≈ 0.154 µM) | ≤ 0.125 µg/mL | ≤ 0.125 µg/mL | – | –
10 | CC[C@H]1OC(=O)[C@H](C)[C@@H](O[C@H]2C[C@@](C)(OC)[C@@H](O)[C@H](C)O2)[C@H](C)[C@@H](O[C@@H]2O[C@H](C)C[C@H](N(C)C)[C@H]2O)[C@](C)(O)C[C@@H](C)CN(C)[C@H](C)[C@@H](O)[C@]1(C)O [AZITHROMYCIN] | 8 µg/mL (≈ 10.7 µM) | > 64 µg/mL | > 64 µg/mL | 4 µg/mL (≈ 5.34 µM) | ≤ 0.125 µg/mL | > 64 µg/mL | > 64 µg/mL | – | > 64 µg/mL | > 64 µg/mL | ≥ 64 µg/mL | – | ≤ 0.125 µg/mL | – | MIC (Streptococcus pyogenes [24]): > 64 µg/mL; MIC (Staphylococcus aureus [25]): 1 µg/mL (≈ 1.34 µM)
11 | CC[C@H]1OC(=O)[C@H](C)C(=O)[C@H](C)[C@@H](O[C@@H]2O[C@H](C)[C@@H](O)[C@H](O)[C@H]2O)[C@@](C)(OC)C[C@@H](C)C(=O)[C@H](C)[C@H]2N(CCCCn3cc(-c4ccccn4)nn3)C(=O)O[C@]12C | 2 µg/mL (≈ 2.49 µM) | – | – | > 64 µg/mL | – | – | – | – | – | 16 µg/mL (≈ 20 µM) | > 64 µg/mL | > 64 µg/mL | – | 4 µg/mL (≈ 4.99 µM) | MIC (Streptococcus pyogenes [17]): 8 µg/mL (≈ 9.98 µM)
12 | CC[C@H]1OC(=O)[C@H](C)C(=O)[C@H](C)[C@@H](O[C@@H]2O[C@H](C)C[C@H](N(C)C)[C@H]2O)[C@](C)(OC)C[C@@H](C)C(=O)[C@H](C)[C@H]2N(CCCCn3cnc(-c4cccnc4)c3)C(=O)O[C@]12C [TELITHROMYCIN] | ≤ 0.125 µg/mL | 0.5 µg/mL (≈ 0.616 µM) | 1 µg/mL (≈ 1.23 µM) | 4 µg/mL (≈ 4.93 µM) | – | 64 µg/mL (≈ 78.8 µM) | 8 µg/mL (≈ 9.85 µM) | 16 µg/mL (≈ 19.7 µM) | 32 µg/mL (≈ 39.4 µM) | ≤ 0.125 µg/mL | ≤ 0.125 µg/mL | ≤ 0.125 µg/mL | ≤ 0.125 µg/mL | ≤ 0.125 µg/mL | –
